Our source for the inhibition values is patent US11952387B2, “Bicyclic heteroaromatic ring derivative” (priority 2018, dated 2024).

Molecules are shown by their SMILES.

For orientation: inhibition means the percentage by which the read-out fell short of the control.

This test concerns HRV14. In words: Inhibitory activity against human rhinovirus infection and replication (quantitative real-time PCR). It is filed as cell-based. To be noted: Human rhinovirus sp., MRC5; 100 nmol/L test compound; MRC-5 cells infected with HRV14 at MOI=0.2; 48 hours; viral load normalized to 18s rRNA; read-out: Percent Inhibition. The method, then:
Evaluation of inhibitory activity against human rhinovirus infection and replication (by quantitative real-time PCR)
A required amount of a test compound was weighed off and dissolved in dimethyl sulfoxide (DMSO) to yield a 10 mmol/L stock solution. Next, the stock solution was diluted with a medium for viral infection (minimum essential medium (MEM) supplemented with 2% fetal bovine serum, 5% Tryptose phosphate broth, and 30 mmol/L MgCl2) to prepare 100 nmol/L and 1000 nmol/L of test compound solutions. MRC-5 (human fetal lung fibroblast: ATCC) was suspended at a density of 30000 cells/mL in cell culture medium (MEM supplemented with 10% fetal bovine serum), and 625 μL of the suspension per well was seeded into a 24-well cell culture plate and cultured at 37° C. in 5% CO2. After 72 hours, it was confirmed that the plate had become 80% confluent. The plate was washed with 625 μL of phosphate-buffered physiological saline (Ca/Mg-free; PBS-) once, and 625 μL of the test compound solution prepared just before use was immediately added to the plate. After 30 minutes, the medium was removed followed by addition of 187.5 μL of the test compound solution that had been prepared such that the cells were infected with HRV14 (ATCC) at multiplicity of infection (MOI)=0.2. The cells were then cultured at 35° C. in 5% CO2. After additional 2 hours, 625 μL of the test compound solution prepared just before use was added, and the cells were cultured at 35° C. in 5% CO2. After 48 hours, the cells were washed with 625 μL of PBS- once, and total RNA was extracted from the cells using RNeasy (R) plus kit (Qiagen) according to the manufacturer's instruction. Subsequently, cDNA was synthesized using High-Capacity cDNA Reverse Transcription Kit (Thermo Fisher Scientific). Finally, quantitative real-time PCR was performed in 7500 Fast Real-time PCR system (Life technologies) to measure HRV14 and 18s rRNA. The measurement protocol consisted of the initial denaturation phase at 95° C. for 20 seconds followed by 40 cycles of the denaturation step at 95° C. for 3 seconds and the annealing/elongation step at 60° C. for 30 seconds. The primers used were HRV14 forward primer set forth in SEQ ID NO: 1 and HRV14 reverse primer set forth in SEQ ID NO: 2, and the probe is set forth in SEQ ID NO: 3.
18s rRNA was measured using Eukaryotic 18S rRNA Endogenous Control (Applied Biosystems). According to Equation 1, 18s ribosomal RNA was used as an internal standard to normalize the viral load of HRV14: Viral load of HRV14=The amount of HRV14 in virus-infected cells/the amount of 18s rRNA in virus-infected cells Equation 1
Inhibitory activity of test compounds was calculated as a percent inhibition (%) according to Equation 2: Percent inhibition (%)=[the viral load of HRV in virus-infected cells in the absence of the test compound −the viral load of HRV in virus-infected cells in the presence of the test compound]/[the viral load of HRV in virus-infected cells in the absence of the test compound]×100 Equation 2
The results of using 100 nmol/L test compound solutions were shown in the tables below according to Examples. In the tables, percent inhibition was expressed as follows: percent inhibition >80%: +++, 80%≥percent inhibition >50%: ++, and 50%≥percent inhibition:+.
(In general: In qPCR the cycle at which signal appears reflects the starting amount.)

In the case of `Cc1nc2sc(C(C)(C)O)cn2c1-c1ccc(C(F)(F)F)c(S(=O)(=O)N[C@H]2CC[C@@H](O)CC2)c1` [Example 1-19], the inhibition at 0.1 µM is above 80%.

In the case of `COc1ccc(-c2c(C)nc3sc(C(O)(C4CC4)C4CC4)nn23)cc1S(=O)(=O)C(C)(C)C#N` [Example 7-2], the inhibition at 0.1 µM was above 80%.

Regarding `Cc1nc2sc(C(C)(C)O)nn2c1-c1ccc(C(F)(F)F)c(S(=O)(=O)N[C@H]2C[C@H](O)C2)c1` [Example 2-16], the inhibition at 0.1 µM was above 80%.

For the molecule `COc1ccc(-c2c(C)nc3sc(C(C)(C)O)nn23)cc1S(=O)(=O)[C@H]1C[C@H](O)C1` [Example 2-56], the inhibition at 0.1 µM was at most 50%.

In the case of `Cc1nc2sc(C(C)(C)OC3COC3)cn2c1-c1ccc(Cl)c(S(=O)(=O)N[C@H]2CC[C@@H](O)CC2)c1` [Example 1-8], the inhibition at 0.1 µM was 50 to 80%.

As to `COc1ccc(-c2c(C)nc3sc(C(C)(C)O)nn23)cc1S(=O)(=O)CC(C)(C)C#N` [Example 2-60], the inhibition at 0.1 µM is at most 50%.

In the case of `Cc1nc2sc(C(C)(C)O)nn2c1-c1ccc(C(F)(F)F)c(S(=O)(=O)N[C@]2(C)C[C@H](O)C2)c1` [Example 2-19], the inhibition at 0.1 µM was above 80%.

Consider `Cc1nc2sc(C(C)(C)O)nn2c1-c1ccc(C(F)(F)F)c(S(=O)(=O)NCC(O)C(F)(F)F)c1` (stereo not drawn) [Example 2-33], for which the inhibition at 0.1 µM was above 80%.

Take `Cc1nc2sc(C(C)(C)O)nn2c1-c1ccc(C(F)(F)F)c(S(=O)(=O)[C@H]2C[C@](C)(O)C2)c1` [Example 2-77]: the inhibition at 0.1 µM was above 80%.

Take `Cc1nc2sc(C(C)(C)O)nn2c1-c1ccc(C(F)(F)F)c(S(=O)(=O)NC2(CO)CC(F)(F)C2)c1` [Example 2-32]: the inhibition at 0.1 µM was above 80%.

On to `COc1ccc(-c2c(C)nc3sc(C(C)(C)O)nn23)cc1S(=O)(=O)C(C)C` [Example 2-25], for which the inhibition at 0.1 µM is at most 50%.

In the case of `COc1ccc(-c2c(C)nc3sc(C4(OC)CC4)cn23)cc1S(=O)(=O)N[C@H]1CC[C@@H](O)CC1` [Example 1-47], the inhibition at 0.1 µM lay in the range of 50 to 80%.

For the molecule `Cc1nc2sc(C(C)(C)O)nn2c1-c1ccc(C(F)(F)F)c(S(=O)(=O)[C@H]2C[C@H](O)C2)c1` [Example 2-47], the inhibition at 0.1 µM was above 80%.

As for `COc1ccc(-c2c(C)nc3sc(C(C)(C)O)nn23)cc1S(=O)(=O)[C@H]1C[C@@](C)(O)C1` [Example 2-55], the inhibition at 0.1 µM was at most 50%.

For `Cc1nc2sc(C(C)(C)O)nn2c1-c1cc2c(c(S(=O)(=O)CC(C)(C)O)c1)OCC2` [Example 2-83], the inhibition at 0.1 µM lay in the range of 50 to 80%.

With `Cc1nc2sc(C(C)(C)O)cn2c1-c1ccc(N(C)C)c(S(=O)(=O)N[C@H]2CC[C@@H](O)CC2)c1` [Example 2-5], the inhibition at 0.1 µM is at most 50%.

As for `COc1ccc(-c2c(C)nc3sc(C(C)(C)O)nn23)cc1S(=O)(=O)CCO` [Example 2-12], the inhibition at 0.1 µM was at most 50%.

As to `COc1ccc(-c2c(C)nc3sc(C(O)(C4CC4)C4CC4)nn23)cc1S(=O)(=O)C1CN(C(C)=O)C1` [Example 10-3], the inhibition at 0.1 µM was above 80%.

As for `[2H]C([2H])([2H])Oc1ccc(-c2c(C)nc3sc(C(C)(C)O)cn23)cc1S(=O)(=O)N[C@H]1CC[C@@H](O)CC1` [Example 2-88], the inhibition at 0.1 µM was at most 50%.

Consider `COc1ccc(-c2c(C)nc3sc(C(C)(C)O)nn23)cc1S(=O)(=O)CCC(C)(C)O` [Example 2-42], for which the inhibition at 0.1 µM was at most 50%.

Consider `Cc1nc2sc(C(C)C)nn2c1-c1ccc(Cl)c(S(=O)(=O)N[C@H]2CC[C@@H](O)CC2)c1` [Example 1-9], for which the inhibition at 0.1 µM is above 80%.

In the case of `COc1ccc(-c2c(C)nc3sc(C(C)(C)O)nn23)cc1S(=O)(=O)C(C)(C)C(N)=O` [Example 6-1], the inhibition at 0.1 µM fell in the range of 50 to 80%.

In the case of `CNC(=O)C(C)(C)S(=O)(=O)c1cc(-c2c(C)nc3sc(C(O)(C4CC4)C4CC4)nn23)ccc1OC` [Example 8-4], the inhibition at 0.1 µM was above 80%.

`COc1ccc(-c2c(C)nc3sc(C4(C#N)CC4)nn23)cc1S(=O)(=O)C1CC1` [Example 1-40]: the inhibition at 0.1 µM is at most 50%.

Take `COc1ccc(-c2c(C)nc3sc(C(C)(C)C(=O)N(C)C)nn23)cc1S(=O)(=O)N[C@H]1CC[C@@H](O)CC1` [Example 19]: the inhibition at 0.1 µM is above 80%.

Turning to `COc1ccc(-c2c(C)nc3sc(C(O)(C4CC4)C4CC4)nn23)cc1S(=O)(=O)C(C)(C)C(=O)NCC(C)(C)O` [Example 8-3], the inhibition at 0.1 µM was above 80%.

For `COc1ccc(-c2c(C)nc3sc(C(O)(C4CC4)C4CC4)nn23)cc1S(=O)(=O)[C@H]1C[C@](C)(O)C1` [Example 2-82], the inhibition at 0.1 µM was above 80%.

With `Cc1nc2sc(C(C)(C)C)nn2c1-c1ccc(C(F)(F)F)c(S(=O)(=O)N[C@H]2CC[C@H](O)CC2)c1` [Example 1-32], the inhibition at 0.1 µM was above 80%.

Turning to `COc1ccc(-c2c(C)nc3sc(C(C)(C)O)nn23)cc1S(=O)(=O)NCC(O)C(F)(F)F` (stereo not drawn) [Example 21-16], the inhibition at 0.1 µM was 50 to 80%.

With `CNC(=O)C(C)(C)S(=O)(=O)c1cc(-c2c(C)nc3sc(C(C)(C)O)nn23)ccc1OC` [Example 8-1], the inhibition at 0.1 µM was in the range of 50 to 80%.

Regarding `COc1ccc(-c2c(C)nc3sc(C(C)(C)O)nn23)cc1S(=O)(=O)N[C@H]1C[C@@H](CO)C1` [Example 21-9], the inhibition at 0.1 µM was at most 50%.

On to `COc1ccc(-c2c(C)nc3sccn23)cc1S(=O)(=O)Nc1ccc(F)cc1` [Example 1-52], for which the inhibition at 0.1 µM is at most 50%.

Turning to `[2H]C([2H])([2H])Oc1ccc(-c2c(C)nc3sc(C(C)(C)O)nn23)cc1S(=O)(=O)CC(C)(C)O` [Example 2-58], the inhibition at 0.1 µM was 50 to 80%.

On to `COc1ncc(-c2c(C)nc3sc(C(C)(C)C(=O)O)nn23)cc1S(=O)(=O)N[C@H]1CC[C@@H](O)CC1` [Example 18-2], for which the inhibition at 0.1 µM was at most 50%.

As for `COc1ccc(-c2c(C)nc3sc(C(C)C)nn23)cc1S(=O)(=O)N[C@H]1CC[C@@H](O)CC1` [Example 1-6], the inhibition at 0.1 µM was above 80%.

With `COc1ccc(-c2c(C)nc3sc(C(C)(C)O)nn23)cc1S(=O)(=O)C(C)(C)C` [Example 2-34], the inhibition at 0.1 µM was above 80%.

As to `COc1ccc(-c2c(C)nc3sc(C(C)(C)O)cn23)cc1S(=O)(=O)N[C@H]1CC[C@@H](O)CC1` [Example 21-1], the inhibition at 0.1 µM is at most 50%.

Take `COc1ccc(-c2c(C)nc3sc(C(C)(C)O)nn23)cc1S(=O)(=O)CC(C)(C)O` [Example 1-38]: the inhibition at 0.1 µM is above 80%.

For `COc1ccc(-c2c(C)nc3sc(C(C)(C)O)nn23)cc1S(=O)(=O)CC1(O)COC1` [Example 2-40], the inhibition at 0.1 µM was at most 50%.

As to `COc1ccc(-c2c(C)nc3sc(C(C)(C)O)nn23)cc1S(=O)(=O)CC(C)(O)CO` (stereo not drawn) [Example 2-59], the inhibition at 0.1 µM is at most 50%.

Turning to `COc1ccc(-c2c(C)nc3sc(C4CC4)nn23)cc1S(=O)(=O)NC(C)(C)CO` [Example 1-35], the inhibition at 0.1 µM is above 80%.

`COc1ccc(-c2c(C)nc3sc(C(C)(C)O)nn23)cc1S(=O)(=O)C1CN(C(C)=O)C1` [Example 10-2]: the inhibition at 0.1 µM is at most 50%.

Take `COc1ccc(-c2c(C)nc3sc(C(C)(C)O)nn23)cc1S(=O)(=O)NC(C)(C)CO` [Example 1-36]: the inhibition at 0.1 µM fell in the range of 50 to 80%.

Take `Cc1nc2sc(C(C)(C)O)nn2c1-c1cccc(S(=O)(=O)CC(C)(C)O)c1` [Example 2-38]: the inhibition at 0.1 µM is at most 50%.

`COc1ccc(-c2c(C)nc3sc(C(O)(C4CC4)C4CC4)nn23)cc1S(=O)(=O)C1CN(S(C)(=O)=O)C1` [Example 9-3]: the inhibition at 0.1 µM is above 80%.
